# Measurements reported in patent publication US20220167645A1, “METHODS OF IMPROVING FISH FEED CONVERSION RATE AND SURVIVAL” (AQUINOVO LTD., priority 2019, published 2022).
# Numbered stars: 1 amine (or outer) side, 2 acyl side, 3 side chain; on linkers, the order of the positions; unused ones are H or OH. Square brackets hold non-standard residues; d marks the D form. Suc = O=C(CCC(=O)[*:2])[*:1]; NMeV = CN[C@H](C(=O)O)C(C)C; βAla = NCCC(=O)O
# Tested on: Tilapia fish
# Assay: Experiment #3: tilapia fed AN6-coated feed, treatment schedules 1 to 8 (survival, weight, length, size distribution, FCR)
# Assay type: in vivo
# Conditions: for Average weight/fish (g) / Total weight/cage (g) / Average FCR/cage / Average density (body/cage) / Average weight gain/fish (g): D 236 to D 279, % change relative to control; for % big fish (Big fish 279 dph >1000 g) / % small fish (Small fish 279 dph >476 g) / Δ Treatment - Control (%) big fish (>1000 g) / Δ Treatment - Control (%) small fish (>476 g) / Big fish # (Big fish 279 dph >1000 g) / Small fish # (Small fish 279 dph): 279 dph
# Method: The following fish feed was used in this experiment: MeM (powder, manufactured by Bern Aqua), Nanolis P1, P2 (pellet sizes of 1 mm, 1.2-1.5 mm, respectively, manufactured by Ocialis) and Tilaphi 2, 3 & 4 (pellet sizes of 2 mm, 3-4 mm & 5.5 mm manufactured by Ocialis). The feed content is in described in Table 4.
# Feed was coated using the following general procedure: Different amounts of the peptide AN6 (SEQ ID NO: 6) were prepared by dissolving the peptide in Tris-HCl solution (50 mM, pH=8.8) in ratio of 15 mg peptide to 1.25 ml Tris-HCl solution. Then, each of the various solutions was mixed with 3 Kg of the basic feed pellets (depending on fish size) using an electric mixer. The peptide-feed mixtures where then dried either in oven at 40° C. for 24 hours or in drying drum (at room temperature) for few hours to form coated pellets.
# Tilapia fish (n=4800) were raised from day 10 (0.05 g) post-hatch (dph) in indoor tanks and then transferred to outdoor cages in ponds (40-279 dph). Each cage/tank is an experimental unit. The fish were fed to apparent satiation 2-4 times a day with feed appropriate to their age and treatment as described in Table 5.
# The trial included total 48 cages representing 8 treatments, with 6 repeats each. Each cage contained about 100 fish. […] Fed to fish throughout the entire growth-trial period (for 279 days); • Treatment 2 (5 ppm from 10 dph for 120 days): The control diet with the addition of 5 mg peptide/kg of diet (Feed F). Fish were fed the peptide enriched diet for 120 days (4 months), from 10 days of age (D0—the first day of the experiment) to 130 days of age (D120), and the control diet during the last 6 months (159 days) (Feed E); • Treatment 3 (10 ppm from 10 dph for 60 days): The control diet with the addition of 10 mg peptide/kg of diet (Feed G). […] Fish were fed the peptide enriched diet for 90 days (3 months) from 10 days of age (D0) to 100 days of age (D90) and the control diet for the last 7 months (189 days) (Feed E); • Treatment 5 (10 ppm from 10 dph for 120 days): The control diet with the addition of 10 mg peptide/kg of diet (Feed G). Fish were fed the peptide enriched diet for 120 days (4 months) from 10 days of age (D0) to 130 days of age (D120) and the control diet for the last 6 months (159 days) (Feed E); • Treatment 6 (10 ppm from 100 dph for 30 days): The control diet with the addition of 10 mg peptide/kg of diet (Feed G). Fish were fed the peptide enriched diet for 30 days (1 month) from 100 days of age (D90) to 130 days of age (D120) and the control diet for the first three months (90 days from D0 to D90) and the last 6 months (159 days) (Feed E); • Treatment 7 (30 ppm from 10 dph for 60 days): The control diet with the addition of 30 mg peptide/kg of diet (Feed H). Fish were fed the peptide enriched diet for 60 days (2 months) from 10 days of age (D0) to 70 days of age (D60), and the control diet during the last 8 months (219 days) (Feed E); • Treatment 8 (30 ppm from 10 dph for 90 days): The control diet with the addition of 30 mg peptide/kg of diet (Feed H). Fish were fed the peptide enriched diet for 90 days (3 months) from 10 days of age (D0) to 100 days of age (D90) and the control diet for the last 7 months (189 days) (Feed E).
# During the experimental period, fish weight and length were measured once a month. Individual fish sex was determined at days 96 and 279 of the experiment. Average fish weight per cage were calculated for each measurement period (FIG. 8). […] Between two weight measurements, average weight gain (FIG. 9A) and daily growth rates (FIG. 9B) were calculated by subtracting the average weight at the beginning and end of the measuring period and dividing by the number of days between.
# In order to determine the efficiency of feed conversion into fish substance in experiments (#1, #2, #3), FCR values which reflect the amount of feed needed to grow a kilogram fish, were calculated for each period and for the entire fish growth period. […]
# [1] = Treatment 5 (10 ppm from 10 dph for 120 days)
# [2] = Treatment 5 (10 ppm from 10 dph for 120 days), female fish, D 96
# [3] = Treatment 5 (10 ppm from 10 dph for 120 days), female fish, D 279
# [4] = Treatment 5 (10 ppm from 10 dph for 120 days), male fish, D 96
# [5] = Treatment 5 (10 ppm from 10 dph for 120 days), male fish, D 279
# [6] = Treatment 6 (10 ppm from 100 dph for 30 days)
# [7] = Treatment 6 (10 ppm from 100 dph for 30 days), of 442 fish
# [8] = Treatment 6 (10 ppm from 100 dph for 30 days), female fish, D 96
# [9] = Treatment 6 (10 ppm from 100 dph for 30 days), female fish, D 279
# [10] = Treatment 6 (10 ppm from 100 dph for 30 days), male fish, D 96
# [11] = Treatment 6 (10 ppm from 100 dph for 30 days), male fish, D 279
# [12] = Treatment 7 (30 ppm from 10 dph for 60 days)
# [13] = Treatment 7 (30 ppm from 10 dph for 60 days), of 427 fish
# [14] = Treatment 7 (30 ppm from 10 dph for 60 days), female fish, D 96
# [15] = Treatment 7 (30 ppm from 10 dph for 60 days), female fish, D 279
# [16] = Treatment 7 (30 ppm from 10 dph for 60 days), male fish, D 96
# [17] = Treatment 7 (30 ppm from 10 dph for 60 days), male fish, D 279
# [18] = Treatment 8 (30 ppm from 10 dph for 90 days)
# [19] = Treatment 8 (30 ppm from 10 dph for 90 days), of 446 fish
# [20] = Treatment 8 (30 ppm from 10 dph for 90 days), female fish, D 96
# [21] = Treatment 8 (30 ppm from 10 dph for 90 days), female fish, D 279
# [22] = Treatment 8 (30 ppm from 10 dph for 90 days), male fish, D 96
# [23] = Treatment 8 (30 ppm from 10 dph for 90 days), male fish, D 279
substance,measurement,setting,value
Succ-Asp-Ser- D-Trp -N(Me)Val-βAla-Leu-Met-NH2 (Suc-DS[dW][NMeV][βAla]LM-NH2; SMILES CSCC[C@H](NC(=O)[C@H](CC(C)C)NC(=O)CCNC(=O)[C@H](C(C)C)N(C)C(=O)[C@@H](Cc1c[nH]c2ccccc12)NC(=O)[C@H](CO)NC(=O)[C@H](CC(=O)O)NC(=O)CCC(=O)O)C(N)=O) [AN6],Average weight/fish (g),[1],3.29%
same,Total weight/cage (g),[1],1.28%
same,Length/fish (cm) Mean,[2],15.95 cm
same,Weight/fish (g) Mean,[2],82.96 g
same,Δ Mean % (Treatment vs. control) Length/fish,[2],1.01%
same,Δ Mean % (Treatment vs. control) Weight/fish,[2],0.90%
same,Length/fish (cm) Mean,[3],30.33 cm
same,Weight/fish (g) Mean,[3],611.23 g
same,Δ Mean % (Treatment vs. control) Length/fish,[3],0.66%
same,Δ Mean % (Treatment vs. control) Weight/fish,[3],1.55%
same,Length/fish (cm) Mean,[4],17.08 cm
same,Weight/fish (g) Mean,[4],100.46 g
same,Δ Mean % (Treatment vs. control) Length/fish,[4],−0.81%
same,Δ Mean % (Treatment vs. control) Weight/fish,[4],−4.78%
same,Length/fish (cm) Mean,[5],34.21 cm
same,Weight/fish (g) Mean,[5],859.1 g
same,Δ Mean % (Treatment vs. control) Length/fish,[5],−0.49%
same,Δ Mean % (Treatment vs. control) Weight/fish,[5],−0.72%
same,% big fish (Big fish 279 dph >1000 g),[6],12.9%
same,% small fish (Small fish 279 dph >476 g),[6],6.6%
same,Δ Treatment - Control (%) big fish (>1000 g),[6],2.7%
same,Δ Treatment - Control (%) small fish (>476 g),[6],−2.6%
same,Big fish # (Big fish 279 dph >1000 g),[7],57
same,Small fish # (Small fish 279 dph),[7],29
same,Average FCR/cage,[6],0.00%
same,Average density (body/cage),[6],−1.55%
same,Average weight gain/fish (g),[6],2.11%
same,Average weight/fish (g),[6],0.97%
same,Total weight/cage (g),[6],−0.53%
same,Length/fish (cm) Mean,[8],16.04 cm
same,Weight/fish (g) Mean,[8],87.28 g
same,Δ Mean % (Treatment vs. control) Length/fish,[8],1.58%
same,Δ Mean % (Treatment vs. control) Weight/fish,[8],6.15%
same,Length/fish (cm) Mean,[9],30.45 cm
same,Weight/fish (g) Mean,[9],617.44 g
same,Δ Mean % (Treatment vs. control) Length/fish,[9],1.06%
same,Δ Mean % (Treatment vs. control) Weight/fish,[9],2.58%
same,Length/fish (cm) Mean,[10],17.07 cm
same,Weight/fish (g) Mean,[10],105.78 g
same,Δ Mean % (Treatment vs. control) Length/fish,[10],−0.87%
same,Δ Mean % (Treatment vs. control) Weight/fish,[10],0.27%
same,Length/fish (cm) Mean,[11],34.19 cm
same,Weight/fish (g) Mean,[11],863.26 g
same,Δ Mean % (Treatment vs. control) Length/fish,[11],−0.55%
same,Δ Mean % (Treatment vs. control) Weight/fish,[11],−0.24%
same,% big fish (Big fish 279 dph >1000 g),[12],10.8%
same,% small fish (Small fish 279 dph >476 g),[12],5.4%
same,Δ Treatment - Control (%) big fish (>1000 g),[12],0.5%
same,Δ Treatment - Control (%) small fish (>476 g),[12],−3.7%
same,Big fish # (Big fish 279 dph >1000 g),[13],46
same,Small fish # (Small fish 279 dph),[13],23
same,Average FCR/cage,[12],0.00%
same,Average density (body/cage),[12],−4.89%
same,Average weight gain/fish (g),[12],1.43%
same,Average weight/fish (g),[12],1.37%
same,Total weight/cage (g),[12],−4.56%
same,Length/fish (cm) Mean,[14],15.73 cm
same,Weight/fish (g) Mean,[14],82.52 g
same,Δ Mean % (Treatment vs. control) Length/fish,[14],−0.38%
same,Δ Mean % (Treatment vs. control) Weight/fish,[14],0.36%
same,Length/fish (cm) Mean,[15],30.53 cm
same,Weight/fish (g) Mean,[15],628.2 g
same,Δ Mean % (Treatment vs. control) Length/fish,[15],1.33%
same,Δ Mean % (Treatment vs. control) Weight/fish,[15],4.37%
same,Length/fish (cm) Mean,[16],17.78 cm
same,Weight/fish (g) Mean,[16],109.68 g
same,Δ Mean % (Treatment vs. control) Length/fish,[16],3.25%
same,Δ Mean % (Treatment vs. control) Weight/fish,[16],3.96%
same,Length/fish (cm) Mean,[17],34.04 cm
same,Weight/fish (g) Mean,[17],840.39 g
same,Δ Mean % (Treatment vs. control) Length/fish,[17],−0.99%
same,Δ Mean % (Treatment vs. control) Weight/fish,[17],−2.88%
same,% big fish (Big fish 279 dph >1000 g),[18],20.4%
same,% small fish (Small fish 279 dph >476 g),[18],5.6%
same,Δ Treatment - Control (%) big fish (>1000 g),[18],10.2%
same,Δ Treatment - Control (%) small fish (>476 g),[18],−3.5%
same,Big fish # (Big fish 279 dph >1000 g),[19],91
same,Small fish # (Small fish 279 dph),[19],25
same,Average FCR/cage,[18],−2.14%
same,Average density (body/cage),[18],−0.67%
same,Average weight gain/fish (g),[18],13.57%
same,Average weight/fish (g),[18],7.11%
same,Total weight/cage (g),[18],6.23%
same,Length/fish (cm) Mean,[20],16.17 cm
same,Weight/fish (g) Mean,[20],89.02 g
same,Δ Mean % (Treatment vs. control) Length/fish,[20],2.41%
same,Δ Mean % (Treatment vs. control) Weight/fish,[20],8.27%
same,Length/fish (cm) Mean,[21],30.65 cm
same,Weight/fish (g) Mean,[21],649.16 g
same,Δ Mean % (Treatment vs. control) Length/fish,[21],1.73%
same,Δ Mean % (Treatment vs. control) Weight/fish,[21],7.85%
same,Length/fish (cm) Mean,[22],17.21 cm
same,Weight/fish (g) Mean,[22],106.64 g
same,Δ Mean % (Treatment vs. control) Length/fish,[22],−0.06%
same,Δ Mean % (Treatment vs. control) Weight/fish,[22],1.08%
same,Length/fish (cm) Mean,[23],34.56 cm
same,Weight/fish (g) Mean,[23],912.05 g
same,Δ Mean % (Treatment vs. control) Length/fish,[23],0.52%
same,Δ Mean % (Treatment vs. control) Weight/fish,[23],5.40%
same,average weight of males and females compared to their respective controls,differential analysis of male vs female performances,improved average weight
